# Source: patent US20200368315A1, “ANTIMICROBIAL PEPTIDES AND ADMIXTURES THEREOF SHOWING ANTIMICROBIAL ACTIVITY AGAINST GRAM-NEGATIVE PATHOGENS” (priority 2017, published 2020)
# “And” between values parts separate entries of the source, which are not always exact repeats. Equal values may be shown once. Read-outs that look alike come from different tables or passages of the source.
# Key:
# P. aeruginosa LMG 6395 = assay: microbe, parasite or virus in culture; format: cell-based, Pseudomonas aeruginosa; details: for MIC: Pseudomonas aeruginosa
# In short: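 Broth microdilution in Mueller Hinton Broth, run in duplicate, with 2-fold serial compound dilutions and a final inoculum of 5*10^5 CFU/mL. Strains were precultured in LB at 37° C. MIC is the lowest concentration inhibiting visible growth.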
# [1] = test system: Acinetobacter baumannii ATCC BAA-1605; assay: microbe, parasite or virus in culture; details: for MIC: Acinetobacter baumannii
# Experimental: (§1) Testing was performed according to CLSI (Clinical Laboratory Standards Institute) guidelines. Read out of the study was determination of MIC—minimal inhibitory concentration expressed in μg/mL.
# (§2) Out of these PBS solutions, 76.8 μL was transferred to 1423.2 μL of MH media in deep well for testing compound alone. […] Out of these working solutions 100 μL were transferred to wells in the third column of 96-well assay plates. Assay plates were previously filled with 50 μL of MH media in all wells except for the wells in the third column.
# (§3) Microorganisms used were all revived from skim milk storage at −70° C. by plating them on MH agar plates. The following day a single colony of each microorganism was again streaked on fresh agar plates. The next day, using direct colony suspension method, broth solutions that achieve turbidity equivalent to 0.5 McFarland standard for each microorganism were prepared. […] Out of these suspensions, actual inoculums were prepared by diluting them 100× with MH media giving final microorganism count of 2-8×10^5 CFU/mL. For each strain of microorganisms, 20 mL of these inoculum solutions were prepared. From the second to the twelfth column of 96-well plates, 50 μL of these solutions were transferred per well. To the first column, 50 μL per well of pure growth media was added. In this manner the first column was used as sterility control of media used, the second column was used as control of microorganism's growth and the rest of the plate was used for MIC determination. All plates were incubated for 16-24 h at 37° C.
# (§4) MIC value was determined by visual inspection of bacterial growth within 96-well plates. The first column in which there was no visible growth of bacteria was determined as MIC value for peptide or combination tested in that particular row.
# [2] = test system: Acinetobacter baumannii B2026, clinical isolate; assay: microbe, parasite or virus in culture; details: for MIC: Acinetobacter baumannii
# Experimental: as §1, §2, §3, §4
# [3] = test system: Escherichia coli ATCC BAA-2452; assay: microbe, parasite or virus in culture; details: for MIC: Escherichia coli
# Experimental: as §1, §2, §3, §4
# [4] = test system: Escherichia coli B1927, clinical isolate; assay: microbe, parasite or virus in culture; details: for MIC: Escherichia coli
# Experimental: as §1, §2, §3, §4
# [5] = test system: Klebsiella pneumoniae ATCC BAA-2524; assay: microbe, parasite or virus in culture; details: for MIC: Klebsiella pneumoniae
# Experimental: as §1, §2, §3, §4
# [6] = test system: Klebsiella pneumoniae B1945, clinical isolate; assay: microbe, parasite or virus in culture; details: for MIC: Klebsiella pneumoniae
# Experimental: as §1, §2, §3, §4
# [7] = test system: Pseudomonas aeruginosa ATCC BAA-2108; assay: microbe, parasite or virus in culture; details: for MIC: Pseudomonas aeruginosa
# Experimental: as §1, §2, §3, §4
# L. lactis MG1363 = details: L. lactis MG1363
# [8] = test system: Acinetobacter baumannii ATCC 17978; assay: microbe, parasite or virus in culture; format: cell-based; details: Acinetobacter baumannii, ATCC17978
# Experimental: as §1, §2, §3, §4
# [9] = test system: Escherichia coli ATCC 25922; assay: microbe, parasite or virus in culture; format: cell-based; details: Escherichia coli, ATCC25922
# Experimental: as §1, §2, §3, §4
# [10] = test system: Klebsiella pneumoniae ATCC 700603; assay: microbe, parasite or virus in culture; format: cell-based; details: Klebsiella pneumoniae, ATCC700603
# Experimental: as §1, §2, §3, §4
# [11] = test system: Pseudomonas aeruginosa ATCC 27853; assay: microbe, parasite or virus in culture; format: cell-based; details: Pseudomonas aeruginosa, ATCC27853
# Experimental: as §1, §2, §3, §4
# [12] = Cell viability (ATP levels, CellTiter-Glo); details: human
# Experimental: ATP levels were measured by adding 50 μL of CellTiter-Glo reagent to each well and after 5 minutes of incubation luminescence was measured with SpectraMax i3.
# 96-well plates were seeded with HEK293 cells at concentration of 30,000 cells per well in 100 μL of DMEM growth media supplemented with 1% NEAA and 10% FBS. Border wells were filled with 100 μL of sterile PBS. The next day compounds were added to cells. Compounds were first 2× diluted in 96-well V-bottom plate in PBS. After that compounds were mixed with media in 96-deep-well plate for final concentrations. Growth media from 3 plates was aspirated and replaced with 100 μL of prepared compounds. Compounds were tested in duplicate. ATP levels were measured by adding 50 μL of CellTiter-Glo reagent to each well and after 5 minutes of incubation luminescence was measured with SpectraMax i3. […] The potential effects were then calculated and presented as IC50 values (μg/mL).
compound,measurement,setting,value
CC[C@@H](C)[C@@H](NC(=O)[C@@H](CCCNC(=N)N)NC(=O)[C@@H](CCCNC(=N)N)NC(=O)[C@@H](Cc1ccccc1)NC(=O)[C@@H](CC(C)C)NC(=O)[C@@H](CCCNC(=N)N)NC(=O)[C@H](N)CCCNC(=N)N)C(=O)N[C@H](CC(C)C)C(=O)N[C@H](CCCNC(=N)N)C(=O)N[C@H](Cc1c[nH]c2ccccc12)C(=O)N[C@H](CC(C)C)C(N)=O [GNP-D6],MIC value,"P. aeruginosa LMG 6395; alone, P. aeruginosa LMG 6395",2 µM
same,MIC value,"[1]; alone, MDR A. baumannii ATCC BAA-1605",5.05 µM
same,MIC value,"[2]; alone, A. baumannii B2026, colistin resistant",2.53 µM
same,MIC value,"[3]; alone, MDR E. coli ATCC BAA-2452",1.27 µM
same,MIC value,"[4]; alone, MDR E. coli B1927",1.27 µM
same,MIC value,"[5]; alone, MDR K. pneumoniae ATCC BAA-2524",2.53 µM
same,MIC value,"[6]; alone, MDR K. pneumoniae B1945",5.05 µM
same,MIC value,"[7]; alone, MDR P. aeruginosa ATCC BAA-2108",5.05 µM
same,MIC value of antimicrobial compounds alone,L. lactis MG1363,2 µM
"CN[C@H](CC(C)C)C(=O)N[C@H]1C(=O)N[C@@H](CC(N)=O)C(=O)N[C@H]2C(=O)N[C@H]3C(=O)N[C@H](C(=O)N[C@H](C(=O)O)c4cc(O)cc(O)c4-c4cc3ccc4O)[C@H](O)c3ccc(c(Cl)c3)Oc3cc2cc(c3O[C@@H]2O[C@H](CO)[C@@H](O)[C@H](O)[C@H]2O[C@H]2C[C@](C)(N)[C@H](O)[C@H](C)O2)Oc2ccc(cc2Cl)[C@H]1O [Vancomycin, reference compound]",MIC,"P. aeruginosa LMG 6395; LMG6395, read-out: MIC value",128 µM
same,MIC,"P. aeruginosa LMG 6395; LMG6395, read-out: MIC value of antimicrobial compounds alone",128 µM
same,MIC,[8],128 µg/mL
same,MIC,[9],> 128 µg/mL
same,MIC,[10],> 128 µg/mL
same,MIC,[11],> 128 µg/mL
same,MIC,[1]; ATCCBAA1605,64 µg/mL
same,MIC,"[1]; ATCCBAA1605, read-out: MIC value",44.2 µM
same,MIC,[2],32 µg/mL
same,MIC,[2]; read-out: MIC value,22.1 µM
same,MIC,[3]; ATCCBAA2452,> 128 µg/mL
same,MIC,"[3]; ATCCBAA2452, read-out: MIC value",> 88.3 µM
same,MIC,[4],128 µg/mL
same,MIC,[4]; read-out: MIC value,88.3 µM
same,MIC,[5]; ATCCBAA2524,> 128 µg/mL
same,MIC,"[5]; ATCCBAA2524, read-out: MIC value",> 88.3 µM
same,MIC,[6],> 128 µg/mL
same,MIC,[6]; read-out: MIC value,> 88.3 µM
same,MIC,[7]; ATCCBAA2108,> 128 µg/mL
same,MIC,"[7]; ATCCBAA2108, read-out: MIC value",> 88.3 µM
same,IC50,[12],> 44.2 µM and > 64 µg/mL
